Laboratory results from US11655217B2, “Pyrazole MAGL inhibitors” (H. Lundbeck A/S, priority 2017, dated 2023).

Key:
[1] = molecular target: MAGL (Mus musculus (Mouse), UniProt O35678); assay: Mouse brain proteomes from inhibitor treated mice (oral gavage, sacrificed 4 h after administration, ABPP analysis); settings: 5 mg/kg oral gavage
Method: (§1) Preparation of Mouse Brain Proteomes from Inhibitor Treated Mice.
(§2) Inhibitors were administered to wild-type C57Bl/6J by oral gavage in a vehicle of polyethylene glycol.

[2] = molecular target: FAAH (Mus musculus (Mouse), UniProt O08914); assay: Mouse brain proteomes from inhibitor treated mice (oral gavage, sacrificed 4 h after administration, ABPP analysis), FAAH; settings: 5 mg/kg oral gavage
Chain of FAAH (O08914 whole entry): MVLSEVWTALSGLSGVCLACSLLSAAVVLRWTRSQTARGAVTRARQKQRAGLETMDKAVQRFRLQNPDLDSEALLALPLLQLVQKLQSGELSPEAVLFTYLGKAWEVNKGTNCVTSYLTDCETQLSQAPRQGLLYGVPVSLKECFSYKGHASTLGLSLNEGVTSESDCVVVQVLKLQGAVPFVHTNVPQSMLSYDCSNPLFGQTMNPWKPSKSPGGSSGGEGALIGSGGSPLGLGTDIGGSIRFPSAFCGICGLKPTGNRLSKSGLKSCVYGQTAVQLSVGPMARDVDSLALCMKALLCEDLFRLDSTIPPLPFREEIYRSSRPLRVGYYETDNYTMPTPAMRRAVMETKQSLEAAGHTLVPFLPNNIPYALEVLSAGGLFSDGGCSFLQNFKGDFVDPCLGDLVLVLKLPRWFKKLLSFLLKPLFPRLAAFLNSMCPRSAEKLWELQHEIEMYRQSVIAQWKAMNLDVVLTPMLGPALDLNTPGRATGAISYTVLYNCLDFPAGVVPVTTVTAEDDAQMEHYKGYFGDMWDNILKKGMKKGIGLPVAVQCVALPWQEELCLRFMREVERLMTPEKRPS
Method: as §1, §2

Chain of MAGL (O35678 whole entry): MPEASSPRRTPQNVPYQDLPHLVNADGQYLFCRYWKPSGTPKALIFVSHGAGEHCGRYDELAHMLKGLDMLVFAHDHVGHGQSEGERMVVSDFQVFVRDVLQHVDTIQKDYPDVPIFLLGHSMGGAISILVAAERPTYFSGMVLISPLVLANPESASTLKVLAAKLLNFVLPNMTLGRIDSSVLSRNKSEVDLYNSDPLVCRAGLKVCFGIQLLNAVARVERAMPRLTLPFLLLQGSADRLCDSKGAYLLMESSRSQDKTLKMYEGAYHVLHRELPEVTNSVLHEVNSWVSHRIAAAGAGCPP

SMILES	MAGL % inh. 5 mg/kg (mouse) [1]	FAAH % inh. 5 mg/kg (mouse) [2]
O=C(O)c1ccn(C(=O)N2CCN(Cc3ccc(C(F)(F)F)cc3N3CC[C@@H](F)C3)CC2)n1 [Example 101, (R)-1-(4-(2-(3-fluoropyrrolidin-1-yl)-4-(trifluoromethyl)benzyl)piperazine-1-carbonyl)-1H-pyrazole-3-carboxylic acid]	D (% inhibition is greater than or equal to 0% and less than 25%)	D (% inhibition is greater than or equal to 0% and less than 25%)
C[C@H]1CCCN1c1cc(C(F)(F)F)ccc1CN1CCN(C(=O)n2ccc(C(=O)O)n2)CC1 [Example 104, (S)-1-(4-(2-(2-methylpyrrolidin-1-yl)-4-(trifluoromethyl)benzyl)piperazine-1-carbonyl)-1H-pyrazole-3-carboxylic acid]	D (% inhibition is greater than or equal to 0% and less than 25%)	D (% inhibition is greater than or equal to 0% and less than 25%)
O=C(O)c1ccn(C(=O)N2CCN(Cc3ccc(Cl)cc3N3C4CCC3COC4)CC2)n1 [Example 105, 1-(4-(2-(3-oxa-8-azabicyclo[3.2.1]octan-8-yl)-4-chlorobenzyl)piper-azine-1-carbonyl)-1H-pyrazole-3-carboxylic acid]	D (% inhibition is greater than or equal to 0% and less than 25%)	D (% inhibition is greater than or equal to 0% and less than 25%)
O=C(O)c1ccn(C(=O)N2CCN(Cc3ccc(C(F)(F)F)cc3N3CC4COCC4C3)CC2)n1 (stereo not drawn) [Example 106, 1-(4-(2-(tetrahydro-1H-furo[3,4-c]pyrrol-5(3H)-yl)-4-(trifluoromethyl)benzyl)piperazine-1-carbonyl)-1H-pyrazole-3-carboxylic acid]	D (% inhibition is greater than or equal to 0% and less than 25%)	D (% inhibition is greater than or equal to 0% and less than 25%)
O=C(O)c1ccn(C(=O)N2CCN(Cc3ccc(Cl)cc3N3CCCC3)CC2)n1 [Example 107, 1-(4-(4-chloro-2-(pyrrolidin-1-yl)benzyl)piperazine-1-carbonyl)-1H-pyrazole-3-carboxylic acid]	D (% inhibition is greater than or equal to 0% and less than 25%)	D (% inhibition is greater than or equal to 0% and less than 25%)
CC(C)(O)C1CCN(c2cc(C(F)(F)F)ccc2CN2CCN(C(=O)n3ccc(C(=O)O)n3)CC2)CC1 [Example 109, 1-(4-(2-(4-(2-hydroxypropan-2-yl)piperidin-1-yl)-4-(trifluoromethyl)benzyl)piperazine-1-carbonyl)-1H-pyrazole-3-carboxylic acid]	D (% inhibition is greater than or equal to 0% and less than 25%)	D (% inhibition is greater than or equal to 0% and less than 25%)
O=C(O)c1ccn(C(=O)N2CCN(Cc3ccc(Cl)cc3N3CC4COCC4C3)CC2)n1 (stereo not drawn) [Example 111, 1-(4-(4-chloro-2-(tetrahydro-1H-furo[3,4-c]pyrrol-5(3H)-yl)benzyl)piperazine-1-carbonyl)-1H-pyrazole-3-carboxylic acid]	D (% inhibition is greater than or equal to 0% and less than 25%)	D (% inhibition is greater than or equal to 0% and less than 25%)
NC(=O)C1CCN(c2cc(C(F)(F)F)ccc2CN2CCN(C(=O)n3ccc(C(=O)O)n3)CC2)CC1 [Example 113, 1-(4-(2-(4-carbamoylpiperidin-1-yl)-4-(trifluoromethyl)benzyl)piperazine-1-carbonyl)-1H-pyrazole-3-carboxylic acid]	D (% inhibition is greater than or equal to 0% and less than 25%)	D (% inhibition is greater than or equal to 0% and less than 25%)
CC1CCC(C)N1c1cc(C(F)(F)F)ccc1CN1CCN(C(=O)n2ccc(C(=O)O)n2)CC1 (stereo not drawn) [Example 114, 1-(4-(2-(2,5-dimethylpyrrolidin-1-yl)-4-(trifluoromethyl)benzyl)piperazine-1-carbonyl)-1H-pyrazole-3-carboxylic acid]	D (% inhibition is greater than or equal to 0% and less than 25%)	D (% inhibition is greater than or equal to 0% and less than 25%)
O=C(O)c1ccn(C(=O)N2CC3CN(Cc4cccc(Oc5ccc(Cl)cc5)c4)CC3C2)n1 (stereo not drawn) [Example 116, 1-(5-(3-(4-chlorophenoxy)benzyl)octahydro-pyrrolo[3,4-c]pyrrole-2-carbonyl)-1H-pyrazole-3-carboxylic acid]	D (% inhibition is greater than or equal to 0% and less than 25%)	D (% inhibition is greater than or equal to 0% and less than 25%)
O=C(O)c1ccn(C(=O)N2CCN(Cc3ccc(C(F)(F)F)cc3N3C4CCC3COC4)CC2)n1 [Example 118, 1-(4-(2-(3-oxa-8-azabicyclo[3.2.1]octan-8-yl)-4-(trifluoromethyl)benzyl)piperazine-1-carbonyl)-1H-pyrazole-3-carboxylic acid]	D (% inhibition is greater than or equal to 0% and less than 25%)	D (% inhibition is greater than or equal to 0% and less than 25%)
CC(=O)NC1CCN(c2cc(C(F)(F)F)ccc2CN2CCN(C(=O)n3ccc(C(=O)O)n3)CC2)CC1 [Example 119, 1-(4-(2-(4-acetamidopiperidin-1-yl)-4-(trifluoromethyl)benzyl)piperazine-1-carbonyl)-1H-pyrazole-3-carboxylic acid]	D (% inhibition is greater than or equal to 0% and less than 25%)	D (% inhibition is greater than or equal to 0% and less than 25%)
O=C(O)c1ccn(C(=O)N2CCN(Cc3ccc(C(F)(F)F)cc3N3CCC(O)CC3)CC2)n1 [Example 120, 1-(4-(2-(4-hydroxypiperidin-1-yl)-4-(trifluoromethyl)benzyl)piperazine-1-carbonyl)-1H-pyrazole-3-carboxylic acid]	D (% inhibition is greater than or equal to 0% and less than 25%)	D (% inhibition is greater than or equal to 0% and less than 25%)
O=C(O)c1ccn(C(=O)N2CCC(Oc3ccc(Cl)c(N4CCCC4)c3)CC2)n1 [Example 121, 1-(4-(4-chloro-3-(pyrrolidin-1-yl)phenoxy)piperidine-1-carbonyl)-1H-pyrazole-3-carboxylic acid]	D (% inhibition is greater than or equal to 0% and less than 25%)	D (% inhibition is greater than or equal to 0% and less than 25%)
O=C(O)c1ccn(C(=O)N2CC3CN(Cc4ccc(N5CCCC5)cc4C(F)(F)F)CC3C2)n1 (stereo not drawn) [Example 123, 1-(5-(4-(pyrrolidin-1-yl)-2-(trifluoromethyl)benzyl)octahydro-pyrrolo[3,4-c]pyrrole-2-carbonyl)-1H-pyrazole-3-carboxylic acid]	D (% inhibition is greater than or equal to 0% and less than 25%)	D (% inhibition is greater than or equal to 0% and less than 25%)
O=C(O)c1ccn(C(=O)N2CC3CN(Cc4cc(Cl)cc(C(F)(F)F)c4)CC3C2)n1 (stereo not drawn) [Example 124, 1-(5-(3-chloro-5-(trifluoromethyl)benzyl)octahydro-pyrrolo[3,4-c]pyrrole-2-carbonyl)-1H-pyrazole-3-carboxylic acid]	D (% inhibition is greater than or equal to 0% and less than 25%)	C (% inhibition is greater than or equal to 25% and less than 50%)
Cc1cn(C(=O)N2CCC3(CCN(Cc4cc(Cl)ccc4C(F)(F)F)C3)CC2)nc1C(=O)O [Example 130, 1-(2-(5-chloro-2-(trifluoromethyl)benzyl)-2,8-diazaspiro[4.5]decane-8-carbonyl)-4-methyl-1H-pyrazole-3-carboxylic acid]	D (% inhibition is greater than or equal to 0% and less than 25%)	D (% inhibition is greater than or equal to 0% and less than 25%)
O=C(O)c1nn(C(=O)N2CCN(Cc3cccc(Oc4ccc(Cl)cc4)c3)CC2)cc1Cl [Example 132, 4-chloro-1-(4-(3-(4-chlorophenoxy)benzyl)piperazine-1-carbonyl)-1H-pyrazole-3-carboxylic acid]	D (% inhibition is greater than or equal to 0% and less than 25%)	D (% inhibition is greater than or equal to 0% and less than 25%)
O=C(O)c1nn(C(=O)N2CCC3(CCN(Cc4cc(Cl)ccc4C(F)(F)F)C3)CC2)cc1Cl [Example 133, 4-chloro-1-(2-(5-chloro-2-(trifluoromethyl)benzyl)-2,8-diazaspiro[4.5]decane-8-carbonyl)-1H-pyrazole-3-carboxylic acid]	D (% inhibition is greater than or equal to 0% and less than 25%)	D (% inhibition is greater than or equal to 0% and less than 25%)
Cc1cn(C(=O)N2CCC3(CC2)CN(Cc2ccc(C(F)(F)F)cc2N2CCCC2)C3)nc1C(=O)O [Example 135, 4-methyl-1-(2-(2-(pyrrolidin-1-yl)-4-(trifluoromethyl)benzyl)-2,7-diazaspiro[3.5]no-nane-7-carbonyl)-1H-pyrazole-3-carboxylic acid]	D (% inhibition is greater than or equal to 0% and less than 25%)	D (% inhibition is greater than or equal to 0% and less than 25%)
O=C(O)c1nn(C(=O)N2CCC3(CCCN3Cc3cc4ccc(C(F)(F)F)cc4s3)CC2)cc1Cl [Example 139, 4-chloro-1-(1-((6-(trifluoromethyl)benzo[b]thiophen-2-yl)methyl)-1,8-diazaspiro[4.5]decane-8-carbonyl)-1H-pyrazole-3-carboxylic acid]	D (% inhibition is greater than or equal to 0% and less than 25%)	D (% inhibition is greater than or equal to 0% and less than 25%)
